Measurements taken from PubChem BioAssay (NCI).
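Cultured in 96-well plates, cells were exposed to test compound for 48 hours across five concentrations. The concentration for 50% growth inhibition is given as GI50. The concentration for full growth arrest is given as TGI.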

Experiments:
Assay in all cases: inhibition of tumour cell growth, NCI panel, 48 h
[1] = test system: M14 melanoma
[2] = test system: NCI-H522 lung
[3] = test system: OVCAR-4 ovarian
[4] = test system: BT-549 breast
[5] = test system: HCT-116 colon
[6] = test system: T-47D breast
[7] = test system: RXF 393 renal
[8] = test system: SNB-19 CNS
[9] = test system: IGROV1 ovarian
[10] = test system: SN12C renal
[11] = test system: HOP-62 NSCLC
[12] = test system: MDA-MB-468 breast
[13] = test system: EKVX NSCLC
[14] = test system: HCT-15 colon
[15] = test system: HCC-2998 colon
[16] = test system: ACHN renal
[17] = test system: SK-OV-3 ovarian
[18] = test system: 786-0 renal
[19] = test system: SF-539 CNS
[20] = test system: SK-MEL-5 melanoma
[21] = test system: OVCAR-5 ovarian
[22] = test system: DU-145 prostate
[23] = test system: SW-620 colon
[24] = test system: UACC-257 melanoma
[25] = test system: COLO 205 colon
[26] = test system: MCF7 breast
[27] = test system: NCI-H460 lung
[28] = test system: MDA-MB-435
[29] = test system: SNB-75 CNS
[30] = test system: KM12 colon
[31] = test system: A498 renal
[32] = test system: NCI/ADR-RES ovarian
[33] = test system: MDA-MB-231 breast
[34] = test system: HOP-92 NSCLC
[35] = test system: RPMI-8226 leukemia
[36] = test system: MOLT-4 leukemia
[37] = test system: CCRF-CEM leukemia
[38] = test system: NCI-H226 lung
[39] = test system: NCI-H23 lung
[40] = test system: SK-MEL-28 melanoma
[41] = test system: CAKI-1 renal
[42] = test system: UACC-62 melanoma
[43] = test system: HL-60(TB) leukemia
[44] = test system: TK-10 renal
[45] = test system: HS 578T breast
[46] = test system: U251 CNS
[47] = test system: SR leukemia
[48] = test system: OVCAR-3 ovarian
[49] = test system: A549 NSCLC
[50] = test system: MALME-3M melanoma
[51] = test system: SF-295 CNS
[52] = test system: PC-3 prostate
[53] = test system: LOX IMVI melanoma
[54] = test system: K-562 leukemia
[55] = test system: OVCAR-8 ovarian
[56] = test system: SF-268 CNS
[57] = test system: UO-31 renal
[58] = test system: HT29 colon
[59] = test system: SK-MEL-2 melanoma

## O=C(Cn1c(-c2ccccc2)nc2ccccc21)N=Nc1c(O)[nH]c2ccc(Br)cc12
[1]
  GI50: 18.8 µM
  TGI: 52.3 µM
[2]
  GI50: 7.31 µM
  TGI: 22.4 µM
[3]
  GI50: 15.9 µM
  TGI: 36.5 µM
[4]
  GI50: 16 µM
  TGI: 36.9 µM
[5]
  GI50: 18.2 µM
  TGI: 45.8 µM
[6]
  GI50: 11.5 µM
  TGI: 33.8 µM
[7]
  GI50: 10.3 µM
  TGI: 23.9 µM
[8]
  GI50: 17.3 µM
  TGI: 40.8 µM
[9]
  GI50: 12 µM
  TGI: 29.7 µM
[10]
  GI50: 16.2 µM
  TGI: 41.8 µM
[11]
  GI50: 14.6 µM
  TGI: 33 µM
[12]
  GI50: 2.54 µM
  TGI: 9.55 µM
[13]
  GI50: 11.3 µM
  TGI: 34.1 µM
[14]
  GI50: 12 µM
  TGI: 38.9 µM
[15]
  GI50: 14.8 µM
  TGI: 31.3 µM
[16]
  GI50: 15.6 µM
  TGI: 34.1 µM
[17]
  GI50: 16.6 µM
  TGI: 38.4 µM
[18]
  GI50: 17.5 µM
  TGI: 34.7 µM
[19]
  GI50: 14.4 µM
  TGI: 29.7 µM
[20]
  GI50: 13.9 µM
  TGI: 30.9 µM
[21]
  GI50: 22.9 µM
  TGI: 81.4 µM
[22]
  GI50: 19.6 µM
  TGI: 42.3 µM
[23]
  GI50: 18.1 µM
  TGI: 52.9 µM
[24]
  GI50: 15.2 µM
  TGI: 31.7 µM
[25]
  GI50: 18.9 µM
  TGI: 46.2 µM
[26]
  GI50: 5.87 µM
  TGI: 25.6 µM
[27]
  GI50: 16.8 µM
  TGI: 35 µM
[28]
  GI50: 5.9 µM
  TGI: 21.3 µM
[29]
  GI50: 9.46 µM
  TGI: 23.6 µM
[30]
  GI50: 14.8 µM
  TGI: 52.9 µM
[31]
  GI50: 16 µM
  TGI: 31.1 µM
[32]
  GI50: 15.4 µM
  TGI: 33.8 µM
[33]
  GI50: 12 µM
  TGI: 27.9 µM
[34]
  GI50: 15.4 µM
  TGI: 34.2 µM
[35]
  GI50: 35.6 µM
  TGI: > 100 µM
[36]
  GI50: 17.6 µM
  TGI: > 100 µM
[37]
  GI50: 34.8 µM
  TGI: > 100 µM
[38]
  GI50: 11.1 µM
  TGI: 28.3 µM
[39]
  GI50: 16.3 µM
  TGI: 36.5 µM
[40]
  GI50: 17.8 µM
  TGI: 36.7 µM
[41]
  GI50: 11.8 µM
  TGI: 25.7 µM
[42]
  GI50: 12.1 µM
  TGI: 25.9 µM
[43]
  GI50: 25.5 µM
  TGI: > 100 µM
[44]
  GI50: 21 µM
  TGI: 40.3 µM
[45]
  GI50: 14.9 µM
  TGI: 47.3 µM
[46]
  GI50: 16.2 µM
  TGI: 31.7 µM
[47]
  GI50: 6.04 µM
  TGI: > 100 µM
[48]
  GI50: 14.3 µM
  TGI: 30.3 µM
[49]
  GI50: 14.7 µM
  TGI: 34.8 µM
[50]
  GI50: 12.3 µM
  TGI: 27.1 µM
[51]
  GI50: 12.7 µM
  TGI: 28 µM
[52]
  GI50: 15 µM
  TGI: 43.2 µM
[53]
  GI50: 15 µM
  TGI: 31.7 µM
[54]
  GI50: 9.48 µM
  TGI: > 100 µM
[55]
  GI50: 14.4 µM
  TGI: 31.1 µM
[56]
  GI50: 16.2 µM
  TGI: 38.3 µM
[57]
  GI50: 10 µM
  TGI: 26.8 µM
[58]
  GI50: 14.3 µM
  TGI: 30.4 µM
[59]
  GI50: 17 µM
  TGI: 42.9 µM
